Measurements: ChEMBL document CHEMBL1157501, “Novel fluorinated acridone derivatives. Part 1: synthesis and evaluation as potential anticancer agents” (Bioorg Med Chem Lett, 2008)

Tests used:
[1] = system: DU-145; assay: Anticancer activity against human DU145 cells; type: functional
[2] = system: MCF7; assay: Anticancer activity against human MCF7 cells; type: functional
[3] = system: NCI/ADR-RES; assay: Anticancer activity against human NCI/ADR-RES cells; type: functional
[4] = system: MDA-MB-231; assay: Anticancer activity against human MDA-MB-231 cells; type: functional
[5] = system: Hs-578T; assay: Anticancer activity against human HS578T cells; type: functional
[6] = system: MDA-MB-435; assay: Anticancer activity against human MDA-MB-435 cells; type: functional
[7] = system: BT-549; assay: Anticancer activity against human BT549 cells; type: functional
[8] = system: T47D; assay: Anticancer activity against human T47D cells; type: functional
[9] = system: MDA-MB-468; assay: Anticancer activity against human MDA-MB-468 cells; type: functional
[10] = system: MCF7; assay: Growth inhibition of human MCF7 cells at 10 uM relative to control; type: functional
[11] = system: T47D; assay: Growth inhibition of human T47D cells at 10 uM relative to control; type: functional
[12] = system: HOP-92; assay: Growth inhibition of human HOP92 cells at 10 uM relative to control; type: functional
[13] = system: HCT-116; assay: Growth inhibition of human HCT116 cells at 10 uM relative to control; type: functional
[14] = system: HT-29; assay: Growth inhibition of human HT29 cells at 10 uM relative to control; type: functional
[15] = system: MOLT-4; assay: Growth inhibition of human MOLT4 cells at 10 uM relative to control; type: functional
[16] = Growth inhibition of human HL60(TB) cells at 10 uM relative to control; type: functional, HL-60(TB); conditions: HL-60
[17] = system: CAKI-1; assay: Growth inhibition of human CAKI1 cells at 10 uM relative to control; type: functional
[18] = system: 786-0; assay: Growth inhibition of human 786-0 cells at 10 uM relative to control; type: functional
[19] = system: UACC-257; assay: Growth inhibition of human UACC257 cells at 10 uM relative to control; type: functional
[20] = system: SK-MEL-28; assay: Growth inhibition of human SK-MEL-28 cells at 10 uM relative to control; type: functional
[21] = system: SF-295; assay: Growth inhibition of human SF295 cells at 10 uM relative to control; type: functional
[22] = system: SNB-75; assay: Growth inhibition of human SNB75 cells at 10 uM relative to control; type: functional
[23] = system: CCRF-CEM; assay: Anticancer activity against human CCRF-CEM cells; type: functional
[24] = Anticancer activity against human HL60(TB) cells; type: functional; conditions: HL-60
[25] = system: K562; assay: Anticancer activity against human K562 cells; type: functional
[26] = system: MOLT-4; assay: Anticancer activity against human MOLT4 cells; type: functional
[27] = system: RPMI-8226; assay: Anticancer activity against human RPMI8226 cells; type: functional
[28] = system: A549; assay: Anticancer activity against human A549 cells; type: functional
[29] = system: EKVX; assay: Anticancer activity against human EKVX cells; type: functional
[30] = system: HOP-62; assay: Anticancer activity against human HOP62 cells; type: functional
[31] = system: HOP-92; assay: Anticancer activity against human HOP92 cells; type: functional
[32] = system: NCI-H226; assay: Anticancer activity against human NCI-H226 cells; type: functional
[33] = system: NCI-H23; assay: Anticancer activity against human NCI-H23 cells; type: functional
[34] = system: NCI-H322M; assay: Anticancer activity against human NCI-H322M cells; type: functional
[35] = system: NCI-H460; assay: Anticancer activity against human NCI-H460 cells; type: functional
[36] = system: NCI-H522; assay: Anticancer activity against human NCI-H522 cells; type: functional
[37] = system: COLO 205; assay: Anticancer activity against human COLO205 cells; type: functional
[38] = system: HCC 2998; assay: Anticancer activity against human HCC2998 cells; type: functional
[39] = system: HCT-116; assay: Anticancer activity against human HCT116 cells; type: functional
[40] = system: HCT-15; assay: Anticancer activity against human HCT15 cells; type: functional
[41] = system: HT-29; assay: Anticancer activity against human HT29 cells; type: functional
[42] = system: KM12; assay: Anticancer activity against human KM12 cells; type: functional
[43] = system: SW-620; assay: Anticancer activity against human SW620 cells; type: functional
[44] = system: SF-268; assay: Anticancer activity against human SF268 cells; type: functional
[45] = system: SF-295; assay: Anticancer activity against human SF295 cells; type: functional
[46] = system: SF-539; assay: Anticancer activity against human SF539 cells; type: functional
[47] = system: SNB-19; assay: Anticancer activity against human SNB19 cells; type: functional
[48] = system: SNB-75; assay: Anticancer activity against human SNB75 cells; type: functional
[49] = system: U-251; assay: Anticancer activity against human U251 cells; type: functional
[50] = system: LOX IMVI; assay: Anticancer activity against human LOX IMVI cells; type: functional
[51] = system: Malme-3M; assay: Anticancer activity against human MALME-3M cells; type: functional
[52] = system: M14; assay: Anticancer activity against human M14 cells; type: functional
[53] = system: SK-MEL-28; assay: Anticancer activity against human SK-MEL-28 cells; type: functional
[54] = system: SK-MEL-5; assay: Anticancer activity against human SK-MEL-5 cells; type: functional
[55] = system: UACC-257; assay: Anticancer activity against human UACC257 cells; type: functional
[56] = system: UACC-62; assay: Anticancer activity against human UACC62 cells; type: functional
[57] = system: IGROV-1; assay: Anticancer activity against human IGROV1 cells; type: functional
[58] = system: OVCAR-3; assay: Anticancer activity against human OVCAR-3 cells; type: functional
[59] = system: OVCAR-4; assay: Anticancer activity against human OVCAR4 cells; type: functional
[60] = system: OVCAR-5; assay: Anticancer activity against human OVCAR5 cells; type: functional
[61] = system: OVCAR-8; assay: Anticancer activity against human OVCAR8 cells; type: functional
[62] = system: SK-OV-3; assay: Anticancer activity against human SKOV3 cells; type: functional
[63] = system: 786-0; assay: Anticancer activity against human 786-0 cells; type: functional
[64] = system: A498; assay: Anticancer activity against human A498 cells; type: functional
[65] = system: ACHN; assay: Anticancer activity against human ACHN cells; type: functional
[66] = system: CAKI-1; assay: Anticancer activity against human CAKI1 cells; type: functional
[67] = system: SN12C; assay: Anticancer activity against human SN12C cells; type: functional
[68] = system: TK-10; assay: Anticancer activity against human TK10 cells; type: functional
[69] = system: UO-31; assay: Anticancer activity against human UO31 cells; type: functional
[70] = system: PC-3; assay: Anticancer activity against human PC3 cells; type: functional

SMILES: O=C1CC(C(F)(F)F)Cc2nc3c(Br)cc(Br)cc3cc21 (stereo not given)
- GI50 [1]: 4.13 µM
- GI50 [2]: 130 nM
- GI50 [3]: 2550 nM
- GI50 [4]: 5.89 µM
- GI50 [5]: 16.3 µM
- GI50 [6]: 1560 nM
- GI50 [7]: 4.63 µM
- GI50 [8]: 3.55 µM
- GI50 [9]: 5.11 µM
- inhibition at 10 µM [10]: 41%
- inhibition at 10 µM [11]: 66%
- inhibition at 10 µM [12]: 57%
- inhibition at 10 µM [13]: 64%
- inhibition at 10 µM [14]: 77%
- inhibition at 10 µM [15]: 31%
- inhibition at 10 µM [16]: 58%
- inhibition at 10 µM [17]: 44%
- inhibition at 10 µM [18]: 54%
- inhibition at 10 µM [19]: 39%
- inhibition at 10 µM [20]: 40%
- inhibition at 10 µM [21]: 61%
- inhibition at 10 µM [22]: 76%
- GI50 [23]: 21.9 µM
- GI50 [24]: 2940 nM
- GI50 [25]: 6.23 µM
- GI50 [26]: 20.8 µM
- GI50 [27]: 4.32 µM
- GI50 [28]: 4.65 µM
- GI50 [29]: 3.54 µM
- GI50 [30]: 4.52 µM
- GI50 [31]: 11.2 µM
- GI50 [32]: 10.7 µM
- GI50 [33]: 3.14 µM
- GI50 [34]: 6.26 µM
- GI50 [35]: 3.1 µM
- GI50 [36]: 11.1 µM
- GI50 [37]: 3.23 µM
- GI50 [38]: 2600 nM
- GI50 [39]: 4.03 µM
- GI50 [40]: 3.35 µM
- GI50 [41]: 4.42 µM
- GI50 [42]: 2020 nM
- GI50 [43]: 15.7 µM
- GI50 [44]: 4.35 µM
- GI50 [45]: 2960 nM
- GI50 [46]: 2850 nM
- GI50 [47]: 11.3 µM
- GI50 [48]: 1460 nM
- GI50 [49]: 11.9 µM
- GI50 [50]: 19 µM
- GI50 [51]: 7.15 µM
- GI50 [52]: 5.47 µM
- GI50 [53]: 8.98 µM
- GI50 [54]: 5.03 µM
- GI50 [55]: 16.1 µM
- GI50 [56]: 9.87 µM
- GI50 [57]: 1290 nM
- GI50 [58]: 1790 nM
- GI50 [59]: 6.49 µM
- GI50 [60]: 1910 nM
- GI50 [61]: 26 µM
- GI50 [62]: 7.55 µM
- GI50 [63]: 8.12 µM
- GI50 [64]: 2690 nM
- GI50 [65]: 17.5 µM
- GI50 [66]: 5.03 µM
- GI50 [67]: 8.82 µM
- GI50 [68]: 7.89 µM
- GI50 [69]: 3.86 µM
- GI50 [70]: 5.75 µM
